Biological target: T1, KRAS G12C 1-169, his-tagged protein, GDP-loaded (Homo sapiens, UniProt P01116, G12C)
T1 construct: KRAS G12C 1-169, his-tagged protein, GDP-loaded
Test: Biochemical assay: covalent modification of KRAS G12C measured by mass spectrometry (RapidFire/TOF or Q-Exactive); further: time not given here
Assay type: binding
Outline: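 GDP-loaded KRAS G12C 1-169 (his-tagged, 2 μM or 0.5 μM in 20 mM Hepes, 150 mM NaCl, 1 mM MgCl2) reacted with compound at 32 μM or 8 μM final, then quenched with formic acid. Intact-protein LC-MS (RapidFire/TOF or Q-Exactive) with charge-envelope deconvolution; % modification from modified vs unmodified peak intensities.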

[1] = tested at a concentration of 8 μM

**Q.** How did the Bind % [1] turn out when C=CC(=O)N1CC2(CCN(c3ccc(F)c(-c4c(C)ccc5cnn(C)c45)c3C#N)C2)C1 (atropisomer, axis not shown) [Compound I-45, (R)-6-(2-acryloyl-2,6-diazaspiro[3.4]octan-6-yl)-2-(1,6-dimethyl-1H-indazol-7-yl)-3-fluorobenzo-nitrile] was run?
**A.** The Bind % was “+ (+ indicates binding activity greater than 0% and up to 50%)”.

**Q.** Which Bind % (tested at 32 μM) does the source give for C=CC(=O)N1CC2(CCN(c3cccc(-c4c(C)ccc5[nH]nc(N)c45)c3C#N)C2)C1 [Compound I-19, 2-(2-acryloyl-2,6-diazaspiro[3.4]octan-6-yl)-6-(3-amino-5-methyl-1H-indazol-4-yl)benzonitrile] here?
**A.** The Bind % was “+++ (+++ indicates binding activity greater than 75%)”.

**Q.** Which Bind % [1] does the source give for C=CC(=O)N1CC2(CCN(c3ccc(F)c(-c4c(C)ccc5cnn(C)c45)c3C#N)C2)C1 (atropisomer, axis not shown) [Compound I-44, (S)-6-(2-acryloyl-2,6-diazaspiro[3.4]octan-6-yl)-2-(1,6-dimethyl-1H-indazol-7-yl)-3-fluorobenzo-nitrile] here?
**A.** Its Bind % is “+++ (+++ indicates binding activity greater than 75%)”.

**Q.** C=CC(=O)N1CC2(CCN(c3ccc(Cl)c(-c4c(C)ccc5[nH]ncc45)c3C#N)CC2)C1 [Compound I-85, 6-(2-acryloyl-2,7-diazaspiro[3.5]nonan-7-yl)-3-chloro-2-(5-methyl-1H-indazol-4-yl)benzonitrile] was tested. Which Bind % (tested at 32 μM) did it give?
**A.** Its Bind % is “+ (+ indicates binding activity greater than 0% and up to 50%)”.

**Q.** For C=CC(=O)N1CC2(CCN(c3ccc(OCC(F)(F)F)c(-c4c(C)ccc5[nH]ncc45)c3C#N)CC2)C1 [Compound I-130, 6-(2-acryloyl-2,7-diazaspiro[3.5]nonan-7-yl)-2-(5-methyl-1H-indazol-4-yl)-3-(2,2,2-trifluoroethoxy) benzonitrile], which Bind % (tested at 32 μM) is on record?
**A.** Its Bind % is “+ (+ indicates binding activity greater than 0% and up to 50%)”.

**Q.** With C=CC(=O)N1CC2(CCN(c3cc(OCCCN(C)C)c(F)c(-c4c(C)ccc5cnn(C)c45)c3C#N)CC2)C1 [Compound I-119, 6-(2-acryloyl-2,7-diazaspiro[3.5]nonan-7-yl)-2-(1,6-dimethyl-1H-indazol-7-yl)-4-(3-(dimethylamino)propoxy)-3-fluorobenzo-nitrile] as the molecule, how does the Bind % (tested at 32 μM) read?
**A.** The Bind % was “+ (+ indicates binding activity greater than 0% and up to 50%)”.

**Q.** With C=CC(=O)N1CC2(CCN(c3cc(N4CCC(N5CCN(C)[C@@H](C)C5)CC4)cc(-c4c(C)ccc5[nH]ncc45)c3C#N)CC2)C1 [Compound I-82, 2-(2-acryloyl-2,7-diazaspiro[3.5]nonan-7-yl)-4-(4-((S)-3,4-dimethyl-piperazin-1-yl)piperidin-1-yl)-6-(5-methyl-1H-indazol-4-yl)benzonitrile] as the molecule, how does the Bind % (tested at 32 μM) read?
**A.** The Bind % was “+ (+ indicates binding activity greater than 0% and up to 50%)”.

**Q.** With C=CC(=O)N1CCC2(CCN(c3cccc(-c4c(C)ccc5cnn(C)c45)c3C#N)C2)C1 (centres unmarked) [Compound I-13, 2-(7-acryloyl-2,7-diazaspiro[4.4]nonan-2-yl)-6-(1,6-dimethyl-1H-indazol-7-yl)benzonitrile] as the molecule, how does the Bind % (tested at 32 μM) read?
**A.** Its Bind % is “+ (+ indicates binding activity greater than 0% and up to 50%)”.

**Q.** With C=CC(=O)N1CC2(CCN(c3cc(NCCN4CCCC4)c(F)c(-c4c(C)ccc5[nH]ncc45)c3C#N)CC2)C1 [Compound I-120, 6-(2-acryloyl-2,7-diazaspiro[3.5]nonan-7-yl)-3-fluoro-2-(5-methyl-1H-indazol-4-yl)-4-((2-(pyrrolidin-1-yl)ethyl)amino) benzonitrile] as the molecule, how does the Bind % (tested at 32 μM) read?
**A.** The Bind % was “+ (+ indicates binding activity greater than 0% and up to 50%)”.

**Q.** C=CC(=O)N1CC2(CCN(c3cc(N4CC(N(C)C)C4)c(F)c(-c4c(C)ccc5[nH]ncc45)c3C#N)CC2)C1 [Compound I-114, 6-(2-acryloyl-2,7-diazaspiro[3.5]nonan-7-yl)-4-(3-(dimethylamino)azetidin-1-yl)-3-fluoro-2-(5-methyl-1H-indazol-4-yl)benzonitrile] was tested. Which Bind % (tested at 32 μM) did it give?
**A.** Its Bind % is “+ (+ indicates binding activity greater than 0% and up to 50%)”.

**Q.** Which Bind % [1] does the source give for C=CC(=O)N1CC2(CCN(c3cc(N4CCC(N5CCN(C)[C@H](C)C5)CC4)cc(-c4c(C)ccc5[nH]ncc45)c3C#N)C2)C1 [Compound I-38, 2-(2-acryloyl-2,6-diazaspiro[3.4]octan-6-yl)-4-(4-((R)-3,4-dimethyl-piperazin-1-yl)piperidin-1-yl)-6-(5-methyl-1H-indazol-4-yl)benzonitrile] here?
**A.** The Bind % was “+++ (+++ indicates binding activity greater than 75%)”.

**Q.** How did the Bind % (tested at 32 μM) turn out when C=CC(=O)N1CC2(CCN(c3cccc(-c4c(C)ccc5[nH]ncc45)c3C#N)C2)C1 [Compound I-1, 2-(2-acryloyl-2,6-diazaspiro[3.4]octan-6-yl)-6-(5-methyl-1H-indazol-4-yl)benzonitrile] was run?
**A.** The Bind % was “+++ (+++ indicates binding activity greater than 75%)”.

**Q.** How did the Bind % (tested at 32 μM) turn out when C=CC(=O)N1CCC2(CCN(c3cc(OCc4ccccn4)cc(-c4c(C)ccc5[nH]ncc45)c3C#N)CC2)C1 [Compound I-52, 2-(2-acryloyl-2,8-diazaspiro[4.5]decan-8-yl)-6-(5-methyl-1H-indazol-4-yl)-4-(pyridin-2-ylmethoxy) benzonitrile] was run?
**A.** The Bind % was “+ (+ indicates binding activity greater than 0% and up to 50%)”.

**Q.** With C=CC(=O)N1CC2(CCN(c3cc(OCCCN(C)C)c(OC)c(-c4c(C)ccc5[nH]ncc45)c3)CC2)C1 [Compound I-103, 1-(7-(3-(3-(dimethylamino)propoxy)-4-methoxy-5-(5-methyl-1H-indazol-4-yl)phenyl)-2,7-diazaspiro[3.5]nonan-2-yl)prop-2-en-1-one] as the molecule, how does the Bind % (tested at 32 μM) read?
**A.** Its Bind % is “++ (++ indicates binding activity from 50 to 75%)”.

— patent US20210380595A1 (ARAXES PHARMA LLC, priority 2018, published 2021)
